Common to all, as to assay type: biochemical
One experiment concerns the target T1, JAK2 (Homo sapiens, UniProt O60674).
T1 construct: purchased Carna Biosciences, Inc
The experiment in a line: JAK tyrosine kinase inhibitory activity in the presence of 1 mM ATP (ELISA), JAK2. The essentials:
(§1)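 Kinase reactions ran on streptavidin-coated plates in 15 mM Tris-HCl pH 7.5, 0.01% Tween-20, 1 mM DTT, 30 °C for 1 h. Enzyme was prediluted to 7.5 nM (JAK1) or 0.75 nM (JAK2, JAK3) before addition. Phosphotyrosine was detected with HRP anti-pTyr antibody and TMB at A450.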
(In general: ELISA stands for enzyme-linked immunosorbent assay.)

The next experiment has as its target T2, JAK3 (Homo sapiens, UniProt P52333).
T2 construct: purchased Carna Biosciences, Inc
T2 sequence (P52333 1-1124): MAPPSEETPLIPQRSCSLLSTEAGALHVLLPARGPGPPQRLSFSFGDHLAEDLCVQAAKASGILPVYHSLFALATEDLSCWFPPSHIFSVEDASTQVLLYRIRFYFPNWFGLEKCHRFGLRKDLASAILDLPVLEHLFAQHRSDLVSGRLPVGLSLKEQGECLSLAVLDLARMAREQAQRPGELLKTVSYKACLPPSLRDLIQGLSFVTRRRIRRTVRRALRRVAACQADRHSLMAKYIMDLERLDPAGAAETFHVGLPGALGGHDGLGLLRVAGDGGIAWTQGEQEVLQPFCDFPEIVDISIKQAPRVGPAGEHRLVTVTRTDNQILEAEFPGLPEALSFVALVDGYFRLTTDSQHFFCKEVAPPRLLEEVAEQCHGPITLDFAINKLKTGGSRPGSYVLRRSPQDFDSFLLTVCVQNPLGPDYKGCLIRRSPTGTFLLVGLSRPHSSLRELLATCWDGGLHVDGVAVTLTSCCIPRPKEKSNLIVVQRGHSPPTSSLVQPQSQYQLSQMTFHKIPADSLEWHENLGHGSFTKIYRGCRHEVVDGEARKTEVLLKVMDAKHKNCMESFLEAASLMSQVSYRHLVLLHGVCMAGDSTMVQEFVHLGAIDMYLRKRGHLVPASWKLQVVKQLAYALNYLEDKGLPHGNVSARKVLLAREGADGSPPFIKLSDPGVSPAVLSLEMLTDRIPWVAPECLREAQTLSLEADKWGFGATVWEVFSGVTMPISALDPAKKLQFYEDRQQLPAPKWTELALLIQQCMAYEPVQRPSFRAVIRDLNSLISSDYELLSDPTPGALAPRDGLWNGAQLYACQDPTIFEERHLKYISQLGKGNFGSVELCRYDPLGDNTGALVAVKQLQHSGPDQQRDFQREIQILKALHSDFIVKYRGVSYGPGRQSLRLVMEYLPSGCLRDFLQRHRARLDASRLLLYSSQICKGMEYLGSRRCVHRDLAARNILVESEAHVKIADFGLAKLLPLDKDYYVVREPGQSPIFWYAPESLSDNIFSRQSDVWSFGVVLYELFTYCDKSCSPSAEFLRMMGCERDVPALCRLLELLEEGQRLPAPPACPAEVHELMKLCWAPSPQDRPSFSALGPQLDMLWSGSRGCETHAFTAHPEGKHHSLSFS
Description: JAK tyrosine kinase inhibitory activity in the presence of 1 mM ATP (ELISA), JAK3. The essentials: as §1

A further experiment concerns the target T3, JAK1 (Homo sapiens, UniProt P23458).
T3 construct: purchased Carna Biosciences, Inc
The experiment in a line: JAK tyrosine kinase inhibitory activity in the presence of 1 mM ATP (ELISA), JAK1. The gist of the method:
as §1

Structures can show the parent of a compound that is named as a salt.

Among the data in patent publication US9999622B2, “Pyrazolothiazole compound and medicine comprising same” (NIPPON SHINYAKU CO., LTD., priority 2014, dated 2018) are IC50 values, retold here.

As usually defined, the IC50 is the concentration at which inhibition is half-maximal.

T1 sequence (O60674 whole entry): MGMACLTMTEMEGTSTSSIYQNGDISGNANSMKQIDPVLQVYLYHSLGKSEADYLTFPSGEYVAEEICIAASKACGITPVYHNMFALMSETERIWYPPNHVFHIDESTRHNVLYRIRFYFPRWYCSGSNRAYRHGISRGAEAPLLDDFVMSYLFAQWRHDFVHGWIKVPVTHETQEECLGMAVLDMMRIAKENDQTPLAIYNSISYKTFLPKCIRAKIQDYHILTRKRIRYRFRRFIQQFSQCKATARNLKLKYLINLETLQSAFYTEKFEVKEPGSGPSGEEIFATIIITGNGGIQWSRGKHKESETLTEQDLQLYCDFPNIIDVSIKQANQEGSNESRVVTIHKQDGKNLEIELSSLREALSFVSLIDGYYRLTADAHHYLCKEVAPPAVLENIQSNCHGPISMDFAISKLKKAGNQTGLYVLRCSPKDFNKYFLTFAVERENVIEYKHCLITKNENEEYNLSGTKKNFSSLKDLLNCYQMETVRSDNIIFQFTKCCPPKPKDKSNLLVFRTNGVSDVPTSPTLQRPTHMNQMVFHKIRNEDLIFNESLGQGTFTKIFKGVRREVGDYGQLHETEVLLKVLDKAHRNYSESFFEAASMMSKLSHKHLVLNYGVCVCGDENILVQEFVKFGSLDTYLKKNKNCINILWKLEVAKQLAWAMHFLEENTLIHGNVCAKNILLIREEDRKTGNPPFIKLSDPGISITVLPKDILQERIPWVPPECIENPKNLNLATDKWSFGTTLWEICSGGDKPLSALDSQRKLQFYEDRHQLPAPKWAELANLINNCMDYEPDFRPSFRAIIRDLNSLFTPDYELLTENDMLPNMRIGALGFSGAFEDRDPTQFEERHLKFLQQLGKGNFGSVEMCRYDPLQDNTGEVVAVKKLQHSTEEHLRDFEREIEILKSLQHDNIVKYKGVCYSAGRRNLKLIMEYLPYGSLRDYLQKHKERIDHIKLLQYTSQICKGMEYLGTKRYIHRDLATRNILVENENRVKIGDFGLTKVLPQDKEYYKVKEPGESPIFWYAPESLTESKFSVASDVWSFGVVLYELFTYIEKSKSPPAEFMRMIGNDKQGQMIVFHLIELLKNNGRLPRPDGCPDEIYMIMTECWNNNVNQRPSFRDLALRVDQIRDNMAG
T3 sequence (P23458 whole entry): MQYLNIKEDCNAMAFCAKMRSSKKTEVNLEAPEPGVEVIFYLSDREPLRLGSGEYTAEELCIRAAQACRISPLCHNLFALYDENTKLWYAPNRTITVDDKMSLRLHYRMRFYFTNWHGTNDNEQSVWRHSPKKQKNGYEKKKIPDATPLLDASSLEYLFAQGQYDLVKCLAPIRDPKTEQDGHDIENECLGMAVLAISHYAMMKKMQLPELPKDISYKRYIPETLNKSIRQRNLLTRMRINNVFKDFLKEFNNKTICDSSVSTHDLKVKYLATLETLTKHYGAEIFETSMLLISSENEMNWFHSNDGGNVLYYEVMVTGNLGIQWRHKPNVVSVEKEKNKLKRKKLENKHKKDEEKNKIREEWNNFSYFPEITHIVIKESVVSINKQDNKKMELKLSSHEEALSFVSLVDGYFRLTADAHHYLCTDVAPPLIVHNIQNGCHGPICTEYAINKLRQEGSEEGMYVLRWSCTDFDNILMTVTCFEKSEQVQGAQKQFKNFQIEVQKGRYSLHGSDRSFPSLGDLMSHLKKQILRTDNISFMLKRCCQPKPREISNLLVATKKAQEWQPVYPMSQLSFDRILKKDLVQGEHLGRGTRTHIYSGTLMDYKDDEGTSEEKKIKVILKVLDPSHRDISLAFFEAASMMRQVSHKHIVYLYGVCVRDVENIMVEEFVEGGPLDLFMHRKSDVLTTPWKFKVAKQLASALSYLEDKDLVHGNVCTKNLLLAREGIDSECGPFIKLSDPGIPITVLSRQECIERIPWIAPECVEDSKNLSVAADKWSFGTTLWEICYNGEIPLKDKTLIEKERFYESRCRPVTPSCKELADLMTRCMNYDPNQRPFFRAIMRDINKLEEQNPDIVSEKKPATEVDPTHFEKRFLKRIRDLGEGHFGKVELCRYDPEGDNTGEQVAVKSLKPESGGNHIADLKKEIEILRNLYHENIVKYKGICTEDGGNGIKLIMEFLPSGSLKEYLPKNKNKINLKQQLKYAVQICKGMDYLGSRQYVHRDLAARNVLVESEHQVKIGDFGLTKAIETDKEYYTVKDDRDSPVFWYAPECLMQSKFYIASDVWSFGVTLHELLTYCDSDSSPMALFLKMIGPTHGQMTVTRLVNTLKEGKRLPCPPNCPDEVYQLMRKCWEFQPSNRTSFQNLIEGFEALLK

As for `C[C@H](Nc1cc(C(=O)N2CCC(NC(=O)c3ccccn3)CC2)nc(-c2cnn3ccsc23)n1)C1CC1` [Example 185, N-1-[6-[(1S)-1-cyclopropylethyl]amino-2-(pyrazolo[5,1-b][1,3]thiazol 7 yl)pyrimidine-4-carbonyl]piperidin-4-ylpyridine-2-carboxamide], the IC50 at JAK2 is over 10000 nM; at JAK3, 810 nM; at JAK1 it was 190 nM.

Consider `CCC(=O)N1CCC(Nc2cc(C(=O)N3CCC(NC(=O)OC)CC3)nc(-c3cnn4ccsc34)n2)CC1` [Example 198, Methyl (1-6-[(1-propanoylpiperidin-4-yl)amino]-2-(pyrazolo[5,1-b][1,3]thiazol-7-yl)pyrimidine-4-carbonylpiperidin-4-yl)carbamate], for which the IC50 was over 10000 nM on JAK2, over 10000 nM on JAK3 and 1500 nM at JAK1.

As to `C[C@@H](Nc1cc(C(=O)N2CCC(NC(=O)c3ccc(F)cc3)CC2)nc(-c2cnn3ccsc23)n1)C(C)(C)C` [Example 197, N-1-[6-[(2R)-3,3-dimethylbutan-2-yl]amino-2-(pyrazolo[5,1-b][1,3]thiazol-7-yl)pyrimidine-4-carbonyl]piperidin-4-yl-4-fluorobenzamide], the IC50 on JAK2 turned out to be 8200 nM; on JAK3 it was 3800 nM; at JAK1, 120 nM.

Turning to `COC(=O)NC1CCN(C(=O)c2cc(N[C@H](C)C3CCCCC3)nc(-c3cnn4ccsc34)n2)CC1` [Example 161, Methyl 1-[6-[(1R)-1-cyclohexylethyl]amino-2-(pyrazolo[5,1-b][1,3]thiazol-7-yl)pyrimidine-4-carbonyl]piperidin-4-ylcarbamate], the 50% inhibitory concentration (IC50) is over 10000 nM on JAK2, over 10000 nM at JAK3 and 47 nM at JAK1.

For `CCC1CCCCN1c1cc(C(=O)N2CCC(NC(=O)C3CC3)CC2)nc(-c2cnn3ccsc23)n1` (stereo not drawn) [Example 157, N-(1-{[6-(2-ethylpiperidin-1-yl)-2-(pyrazolo[5,1-b][1,3]thiazol-7-yl)pyrimidin-4-yl]carbonyl}piperidin-4-yl)cyclopropanecarboxamide], the IC50 on JAK2 is 5100 nM; at JAK3, over 10000 nM; on JAK1, 310 nM.

Take `COC(=O)NC1CCN(C(=O)c2nc(-c3cnn4ccsc34)nc(N[C@@H](C)C3CC3)c2OC)CC1` [Example 145, Methyl (1-{[6-{[(1S)-1-cyclopropylethyl]amino} 5 methoxy-2-(pyrazolo[5,1-b][1,3]thiazol-7-yl)pyrimidin-4-yl]carbonyl}piperidin-4-yl)carbamate]: the values for the concentration for half-maximal inhibition (IC50) on JAK2, on JAK3 and on JAK1 were 1200 nM, 1400 nM and 270 nM, respectively.

Take `O=C(NC1CCN(C(=O)c2cc(NCC3(COC(F)F)CCC3)nc(-c3cnn4ccsc34)n2)CC1)C1CC1` [Example 9, N-[1-({6-[({1-[(Difluoromethoxy)methyl]cyclobutyl}methyl)amino]-2-(pyrazolo[5,1-b][1,3]thiazol-7-yl)pyrimidin-4-yl}carbonyl)piperidin-4-yl]cyclopropanecarboxamide]: the IC50 was 960 nM at JAK2, 2000 nM at JAK3 and 19 nM on JAK1.

Take `CC(C)(CO)Nc1cc(C(=O)N2CCC(NC(=O)C3CC3)CC2)nc(-c2cnn3ccsc23)n1` [Example 48, N-[1-({6-[(1-Hydroxy-2-methylpropan-2-yl)amino]-2-(pyrazolo[5,1-b][1,3]thiazol-7-yl)pyrimidin-4-yl}carbonyl)piperidin-4-yl]cyclopropanecarboxamide]: the IC50 on JAK2 is over 10000 nM; at JAK3, over 10000 nM; on JAK1, 150 nM.

In the case of `C[C@@H](Nc1cc(C(=O)N2CCC(NC(=O)OCCN(C)C)CC2)nc(-c2cnn3ccsc23)n1)C(C)(C)C` [Example 102, 2-(Dimethylamino)ethyl (1-{[6-{[(2R)-3,3-dimethylbutan-2-yl]amino}-2-(pyrazolo[5,1-b][1,3]thiazol-7-yl)pyrimidin-4-yl]carbonyl}piperidin-4-yl)carbamate], the IC50 came out at 1300 nM on JAK2, 1700 nM at JAK3 and 24 nM at JAK1.

Regarding `CCC(=O)NC1CCN(C(=O)c2cc(NCC(C)(C)OC)nc(-c3cnn4ccsc34)n2)CC1` [Example 119, N-[1-({6-[(2-Methoxy-2-methylpropyl)amino]-2-(pyrazolo[5,1-b][1,3]thiazol-7-yl)pyrimidin-4-yl}carbonyl)piperidin-4-yl]propanamide], the figures for the IC50 at JAK2, on JAK3 and on JAK1 were 4200 nM, over 10000 nM and 670 nM, respectively.

As to `CCC(CC)Nc1cc(C(=O)N2CCC(NC(=O)OC)CC2)nc(-c2cnn3ccsc23)n1` [Example 109, Methyl (1-{[6-(pentan-3-ylamino)-2-(pyrazolo[5,1-b][1,3]thiazol-7-yl)pyrimidin-4-yl]carbonyl}piperidin-4-yl)carbamate], the IC50 at JAK2 was 1800 nM; on JAK3, 2400 nM; at JAK1, 190 nM.

As for `CC(C)OC(=O)NC1CCN(C(=O)c2cc(N[C@H](C)C(C)(C)C)nc(-c3cnn4ccsc34)n2)CC1` [Example 29, Propan-2-yl (1-{[6-{[(2R)-3,3-dimethylbutan-2-yl]amino}-2-(pyrazolo[5,1-b][1,3]thiazol-7-yl)pyrimidin-4-yl]carbonyl}piperidin-4-yl)carbamate], the IC50 stood at 1200 nM on JAK2, 3000 nM on JAK3 and 140 nM on JAK1.

Regarding `N#CC1(Nc2cc(C(=O)N3CCC(O)CC3)nc(-c3cnn4ccsc34)n2)CC1` [Example 117, 1-({6-[(4-Hydroxypiperidin-1-yl)carbonyl]-2-(pyrazolo[5,1-b][1,3]thiazol-7-yl)pyrimidin-4-yl}amino)cyclopropanecarbonitrile hydrochloride], the values for the half-inhibitory concentration (IC50) on JAK2, at JAK3 and at JAK1 were over 10000 nM, 5700 nM and 1400 nM, respectively.

Turning to `COC(=O)NC1CCN(C(=O)c2cc(N[C@H]3CCN(C(=O)OC(C)(C)C)C3)nc(-c3cnn4ccsc34)n2)CC1` [Example 147, tert-Butyl (3S)-3-{[6 {(4 [(methoxycarbonyl)amino]piperidin-1-yl}carbonyl)-2-(pyrazolo[5,1-b][1,3]thiazol-7-yl)pyrimidin-4-yl]amino}pyrrolidine-1-carboxylate], the half-maximal inhibitory concentration (IC50) was over 10000 nM on JAK2, over 10000 nM on JAK3 and 2600 nM at JAK1.

As to `Cc1c(N[C@@H](C)C(C)(C)C)nc(-c2cnn3ccsc23)nc1C(=O)N1CCC(NC(=O)C2CC2)CC1` [Example 7, N-(1-{[6-{[(2S)-3,3-Dimethylbutan-2-yl]amino}-5-methyl-2-(pyrazolo[5,1-b][1,3]thiazol-7-yl)pyrimidin-4-yl]carbonyl}piperidin-4-yl)cyclopropanecarboxamide], the IC50 is over 10000 nM at JAK2, 2700 nM at JAK3 and 69 nM on JAK1.

On to `COC(=O)NC1CCN(C(=O)c2cc(NC3CCN(C(=O)CC#N)CC3)nc(-c3cnn4ccsc34)n2)CC1` [Example 199, Methyl (1-{[6-{[1-(cyanoacetyl)piperidin-4-yl]amino}-2-(pyrazolo[5,1-b][1,3]thiazol-7-yl)pyrimidin-4-yl]carbonyl}piperidin-4-yl)carbamate], for which the results for the IC50 at JAK2, at JAK3 and on JAK1 were over 10000 nM, over 10000 nM and 2800 nM, respectively.

As to `CCC(CC)Nc1cc(C(=O)N2CCC(NC(=O)C3CC3)CC2)nc(-c2cnn3ccsc23)n1` [Example 124, N-(1-{[6-(Pentan-3-ylamino)-2-(pyrazolo[5,1-b][1,3]thiazol-7-yl)pyrimidin-4-yl]carbonyl}piperidin-4-yl)cyclopropanecarboxamide], the IC50 worked out at 1700 nM at JAK2, 2200 nM at JAK3 and 220 nM at JAK1.

Take `CCC(CC)Oc1cc(C(=O)N2CCC(NC(=O)OC)CC2)nc(-c2cnn3ccsc23)n1` [Example 108, Methyl (1-{[6-(pentan-3-yloxy)-2-(pyrazolo[5,1-b][1,3]thiazol-7-yl)pyrimidin-4-yl]carbonyl}piperidin-4-yl)carbamate]: the IC50 at JAK2 is 2500 nM; on JAK3 it was over 10000 nM; on JAK1, 200 nM.
